Converted amounts (≈) assume the structure as drawn.
Assays:
[1] = tested on: Staphylococcus aureus; assay: Antibacterial activity against Staphylococcus aureus ATCC 25923 assessed as bacterial growth inhibition incubated for 18 to 24 hrs by NCCLS based assay; type: functional; details: time 18-24 hrs
[2] = tested on: Staphylococcus aureus; assay: Bactericidal activity against Staphylococcus aureus incubated for 24 hrs by time kill assay; type: functional, organism-based
[3] = tested on: Streptococcus agalactiae; assay: Antibacterial activity against Streptococcus agalactiae assessed as bacterial growth inhibition incubated for 18 to 24 hrs by NCCLS based assay; type: functional; details: time 18-24 hrs
[4] = tested on: Enterococcus faecalis; assay: Antibacterial activity against Enterococcus faecalis assessed as bacterial growth inhibition incubated for 18 to 24 hrs by NCCLS based assay; type: functional; details: time 18-24 hrs
[5] = tested on: Staphylococcus aureus; assay: Antibacterial activity against methicillin-resistant Staphylococcus aureus BNCC 337371 assessed as bacterial growth inhibition incubated for 18 to 24 hrs by NCCLS based assay; type: functional; details: time 18-24 hrs
[6] = tested on: Staphylococcus aureus; assay: Bactericidal activity against methicillin-resistant Staphylococcus aureus ATCC 29213 incubated for 24 hrs by time kill assay; type: functional, organism-based
[7] = tested on: Escherichia coli; assay: Antibacterial activity against Escherichia coli CICC 10389 assessed as bacterial growth inhibition incubated for 18 to 24 hrs by NCCLS based assay; type: functional; details: time 18-24 hrs
[8] = tested on: Staphylococcus epidermidis; assay: Antibacterial activity against methicillin-resistant Staphylococcus epidermidis ATCC 51625 assessed as bacterial growth inhibition incubated for 18 to 24 hrs by NCCLS based assay; type: functional; details: time 18-24 hrs
[9] = tested on: Pasteurella multocida; assay: Antibacterial activity against Pasteurella multocida CVCC 1659 assessed as bacterial growth inhibition incubated for 18 to 24 hrs by NCCLS based assay; type: functional; details: time 18-24 hrs

C=C[C@]1(C)C[C@@H](OC(=O)CSc2ncnc(N3CCOCC3)n2)[C@]2(C)[C@H](C)CC[C@]3(CCC(=O)[C@H]32)[C@@H](C)[C@@H]1O
MIC [1]: 0.063 µg/mL (≈ 0.113 µM) | Activity [2]: Dose-Dependent Effect | MIC [3]: 0.125 µg/mL (≈ 0.224 µM) | MIC [4]: 32 µg/mL (≈ 57.3 µM) | MIC [5]: 0.063 µg/mL (≈ 0.113 µM) | Activity [6]: Dose-Dependent Effect | MIC [7]: ≥ 64 µg/mL | MIC [8]: 0.125 µg/mL (≈ 0.224 µM) | MIC [9]: ≥ 64 µg/mL

C=C[C@]1(C)C[C@@H](OC(=O)CSc2ncnc(NC)n2)[C@]2(C)[C@H](C)CC[C@]3(CCC(=O)[C@H]32)[C@@H](C)[C@@H]1O
MIC [1]: 0.125 µg/mL (≈ 0.249 µM) | MIC [3]: 0.125 µg/mL (≈ 0.249 µM) | MIC [4]: 32 µg/mL (≈ 63.7 µM) | MIC [5]: 0.25 µg/mL (≈ 0.497 µM) | MIC [7]: ≥ 64 µg/mL | MIC [8]: 0.5 µg/mL (≈ 0.995 µM) | MIC [9]: ≥ 64 µg/mL

C=C[C@]1(C)C[C@@H](OC(=O)CSc2ncnc(OCCCC)n2)[C@]2(C)[C@H](C)CC[C@]3(CCC(=O)[C@H]32)[C@@H](C)[C@@H]1O
MIC [1]: 0.125 µg/mL (≈ 0.229 µM) | MIC [3]: 4 µg/mL (≈ 7.33 µM) | MIC [4]: ≥ 64 µg/mL | MIC [5]: 0.5 µg/mL (≈ 0.916 µM) | MIC [7]: ≥ 64 µg/mL | MIC [8]: 0.25 µg/mL (≈ 0.458 µM) | MIC [9]: ≥ 64 µg/mL

C=C[C@]1(C)C[C@@H](OC(=O)CSc2ncnc(OCC)n2)[C@]2(C)[C@H](C)CC[C@]3(CCC(=O)[C@H]32)[C@@H](C)[C@@H]1O
MIC [1]: 0.125 µg/mL (≈ 0.241 µM) | MIC [3]: 0.25 µg/mL (≈ 0.483 µM) | MIC [4]: 32 µg/mL (≈ 61.8 µM) | MIC [5]: 0.125 µg/mL (≈ 0.241 µM) | MIC [7]: ≥ 64 µg/mL | MIC [8]: 0.25 µg/mL (≈ 0.483 µM) | MIC [9]: ≥ 64 µg/mL

C=C[C@]1(C)C[C@@H](OC(=O)CSc2ncnc(NCCNCC)n2)[C@]2(C)[C@H](C)CC[C@]3(CCC(=O)[C@H]32)[C@@H](C)[C@@H]1O
MIC [1]: 0.063 µg/mL (≈ 0.113 µM) | MIC [3]: 0.25 µg/mL (≈ 0.447 µM) | MIC [4]: 32 µg/mL (≈ 57.2 µM) | MIC [5]: 0.125 µg/mL (≈ 0.223 µM) | MIC [7]: ≥ 64 µg/mL | MIC [8]: 0.25 µg/mL (≈ 0.447 µM) | MIC [9]: ≥ 64 µg/mL

C=C[C@]1(C)C[C@@H](OC(=O)CSc2ncnc(NCCNC)n2)[C@]2(C)[C@H](C)CC[C@]3(CCC(=O)[C@H]32)[C@@H](C)[C@@H]1O
MIC [1]: 0.063 µg/mL (≈ 0.115 µM) | MIC [3]: 0.013 µg/mL (≈ 0.0238 µM) | MIC [4]: 32 µg/mL (≈ 58.6 µM) | MIC [5]: 0.25 µg/mL (≈ 0.458 µM) | MIC [7]: ≥ 64 µg/mL | MIC [8]: 0.25 µg/mL (≈ 0.458 µM) | MIC [9]: ≥ 64 µg/mL

C=C[C@]1(C)C[C@@H](OC(=O)CSc2ncnc(NCCN)n2)[C@]2(C)[C@H](C)CC[C@]3(CCC(=O)[C@H]32)[C@@H](C)[C@@H]1O
MIC [1]: 2 µg/mL (≈ 3.76 µM) | MIC [3]: 2 µg/mL (≈ 3.76 µM) | MIC [4]: ≥ 64 µg/mL | MIC [5]: 8 µg/mL (≈ 15 µM) | MIC [7]: ≥ 64 µg/mL | MIC [8]: 8 µg/mL (≈ 15 µM) | MIC [9]: ≥ 64 µg/mL

C=C[C@]1(C)C[C@@H](OC(=O)CSc2ncnc(NCCN3CCOCC3)n2)[C@]2(C)[C@H](C)CC[C@]3(CCC(=O)[C@H]32)[C@@H](C)[C@@H]1O
MIC [1]: 0.063 µg/mL (≈ 0.105 µM) | MIC [3]: 0.125 µg/mL (≈ 0.208 µM) | MIC [4]: 32 µg/mL (≈ 53.2 µM) | MIC [5]: 0.125 µg/mL (≈ 0.208 µM) | MIC [7]: ≥ 64 µg/mL | MIC [8]: 0.25 µg/mL (≈ 0.415 µM) | MIC [9]: ≥ 64 µg/mL

C=C[C@]1(C)C[C@@H](OC(=O)CSc2ncnc(Cl)n2)[C@]2(C)[C@H](C)CC[C@]3(CCC(=O)[C@H]32)[C@@H](C)[C@@H]1O
MIC [1]: 4 µg/mL (≈ 7.87 µM) | MIC [3]: 2 µg/mL (≈ 3.94 µM) | MIC [4]: 32 µg/mL (≈ 63 µM) | MIC [5]: 8 µg/mL (≈ 15.7 µM) | MIC [7]: ≥ 64 µg/mL | MIC [8]: 8 µg/mL (≈ 15.7 µM) | MIC [9]: ≥ 64 µg/mL

C=C[C@]1(C)C[C@@H](OC(=O)CSc2ncnc(NCC)n2)[C@]2(C)[C@H](C)CC[C@]3(CCC(=O)[C@H]32)[C@@H](C)[C@@H]1O
MIC [1]: 0.125 µg/mL (≈ 0.242 µM) | MIC [3]: 0.013 µg/mL (≈ 0.0252 µM) | MIC [4]: 16 µg/mL (≈ 31 µM) | MIC [5]: 0.125 µg/mL (≈ 0.242 µM) | MIC [7]: ≥ 64 µg/mL | MIC [8]: 0.125 µg/mL (≈ 0.242 µM) | MIC [9]: ≥ 64 µg/mL

C=C[C@]1(C)C[C@@H](OC(=O)CSc2ncnc(N)n2)[C@]2(C)[C@H](C)CC[C@]3(CCC(=O)[C@H]32)[C@@H](C)[C@@H]1O
MIC [1]: 0.125 µg/mL (≈ 0.256 µM) | MIC [3]: 0.125 µg/mL (≈ 0.256 µM) | MIC [4]: 16 µg/mL (≈ 32.7 µM) | MIC [5]: 0.125 µg/mL (≈ 0.256 µM) | MIC [7]: ≥ 64 µg/mL | MIC [8]: 0.25 µg/mL (≈ 0.512 µM) | MIC [9]: ≥ 64 µg/mL
